The record followed here is the SangsterLogP compilation.

One may read the logD as the decadic logarithm of the distribution of all forms, ionised or not, between an organic phase and buffer at a given pH.

Each structure is given as a SMILES string.

The nature of the data set: method code SF-AS, from DOI: 10.1021/jm00146a003, PMID: 4020837. Particulars: pH 7.4.
Turning to `CCOC(=O)Cn1cnc(I)c1[N+](=O)[O-]`, the logD was 0.93.

Regarding `Cn1cnc(I)c1[N+](=O)[O-]`, the pH-dependent lipophilicity (logD) worked out at 1.29. For `O=C(Cn1cnc([N+](=O)[O-])c1I)Nc1cccnc1` the value was 0.46; for `COCC(O)Cn1cnc([N+](=O)[O-])c1I` (centres undefined), 0.41. Consider `O=[N+]([O-])c1nc[nH]c1I`, for which the log distribution coefficient (logD) was 0.28.

For `CCOC(=O)Cn1cnc([N+](=O)[O-])c1I`, the logD was determined as 0.57. For `COCC(O)Cn1cnc(I)c1[N+](=O)[O-]` (centres undefined) the value was 0.89; for `O=C(Cn1cnc([N+](=O)[O-])c1I)NCc1ccc[n+]([O-])c1`, -1.4; for `Cn1cnc([N+](=O)[O-])c1I`, 1.
